From patent US5686626A, “1,3-dihydro-1-amino-2H-indol-2-ones” (Hoechst Marion Roussel, Inc., priority 1995, dated 1997) come the findings set out here.

Like-named read-outs stand apart in the source and are kept apart here.

Test [1] in a line: Dark Avoidance Assay (scopolamine induced memory deficit reversal). Type of test: in vivo, mice. The following applies: Mus musculus, read-out: % of Animals With Scopolamine Induced Memory Deficit Reversal; for responders at 3 mg/kg: dose 3.0 mg/kg of body wt; for responders at 0.63 mg/kg: dose 0.63 mg/kg of body wt; for responders at 1.25 mg/kg: dose 1.25 mg/kg of body wt; for responders at 0.3 mg/kg: dose 0.3 mg/kg of body wt. On the procedure:
The compounds of the present invention are also useful in the treatment of various memory dysfunctions characterized by decreased cholinergic function such as Alzheimer's Disease.
In this assay, mice are tested for their ability to remember an unpleasant stimulus for a period of 24 hours. A mouse is placed in a chamber that contains a dark compartment; a strong incandescent light drives it to the dark compartment, where an electric shock is administered through metal plates on the floor. The animal is removed from the testing apparatus and tested again, 24 hours later, for the ability to remember the electric shock.
If scopolamine, an anticholinergic that is known to cause memory impairment, is administered before an animal's initial exposure to the test chambers, the animal re-enters the dark compartment shortly after being placed in the test chamber 24 hours later. The effect of scopolamine is blocked by an active test compound, resulting in a greater interval before re-entry into the dark compartment.
The results for an active compound are expressed as the percent of a group of animals in which the effect of scopolamine is blocked, as manifested by an increased interval between being placed in the test chamber and re-entering the dark compartment. Presented in Table 2 is the activity of some of the compounds of the invention in this assay.

Test [2] in a line: phenyl-para-quinone writhing assay in mice (analgesia). Type of test: in vivo. The following applies: for ED50: Mus musculus, sc, read-out: ED50 of Writhing (subcutaneous dose at which 50% of the phenyl-para-quinone induced writhing is inhibited).
A short description of test [3]: supramaximal electroshock (SES) assay (anticonvulsant activity). The conditions noted are these: Mus musculus, ip, 0.5 h; male mice, i.p., 30 minute pretreat; read-out: ED50 (anticonvulsant, protection from extensor tonus). Type of test: in vivo, male mouse (Charles River, CD-1). The method, then: The compounds of the invention are also useful as anticonvulsants due to their anticonvulsant activity in mammals. Anticonvulsant activity is measured in the male mouse using the supramaximal electroshock (SES) assay described in Arch. Int. Pharmacodyn. 92:97-107, 1952. In this procedure, groups of male mice (Charles River, CD-1, 18-30 gm) are used. Drugs are prepared using distilled water and, if insoluble, a surfactant is added. Control animals receive vehicle. Drugs are routinely administered interperitoneally (i.p.) The dosage volume is 10 ml/kg. A primary screen is given a 30 minute pretreat. The animals' eyes are placed across the output terminals of an A.C. shocker that delivers 206 volts rms for 300 msec. Electrode paste coats the animals' eyes at the point of contact with the terminals. […] Protection is expressed as normalized percent inhibition relative to vehicle control.

The mark [4] stands for this setting: mice, dose 1.0 mg/kg of body wt, retest after 24 hours.

As for `CCCN(c1ccncc1)N1C(=O)C2(CCN(C)CC2)c2ccccc21` [1'Methyl-1-(propyl-4-pyridinylamino)spiro-[3H-indole-3,4'-piperidin]-2(1 H)-one], in test [1] (24 h), the responders at 1 mg/kg came out at 20%.
Consider `O=C1Cc2ccccc2N1Nc1ccncc1F` [1,3-Dihydro-1-(3-fluoro-4-pyridinylamino)-2H-indol-2-one], for which the responders at 1 mg/kg in test [1] (setting [4]) was 27%. Further, the responders at 3 mg/kg in test [1] (mice, retest after 24 hours) came to 27%.
As to `O=C1Cc2ccccc2N1Nc1ccncc1` [1,3-Dihydro-1-(4-pyridinylamino)-2H-indol-2-one], in test [2], the ED50 worked out at 0.69 mg/kg. For the same compound, the responders at 0.31 mg/kg in test [1] (mice, dose 0.31 mg/kg of body wt, retest after 24 hours) stood at 27%. In test [1] (mice, retest after 24 hours), the responders at 0.63 mg/kg is 27% and the responders at 1.25 mg/kg was determined as 27%.
As for `CCCN(c1ccncc1)N1C(=O)Cc2ccccc21` [1,3-Dihydro-1-(propyl-4-pyridinylamino)-2H-indol-2-one], in test [2] (20 mg/kg, s.c.), the “% Inhibition of Writhing (% decrease in writhing at a given dose)” value was -58%. In addition, the responders at 1.25 mg/kg in test [1] (mice, retest after 24 hours) is 27%. Further, the ED50 in test [3] stood at 15.9 mg/kg.
Consider `CCCN(c1ccncc1F)N1C(=O)Cc2ccccc21` [1,3-Dihydro-1-[(3-fluoro-4-pyridinyl)-propylamino]-2H-indol-2-one], for which, in test [1] (mice, retest after 24 hours), the responders at 0.3 mg/kg stood at 20% and the responders at 3 mg/kg stood at 20%.
For the compound `CC1C(=O)N(Nc2ccncc2F)c2ccccc21` (stereo not drawn) [1,3-Dihydro-1-[(3-fluoro-4-pyridinyl)amino]-3-methyl-2H-indol-2-one hemifumarate], in test [1] (mice, retest after 24 hours), the responders at 0.3 mg/kg stood at 27% and the responders at 3 mg/kg worked out at 20%.
Regarding `CCCN(c1ccncc1)N1C(=O)C(C)(C)c2ccccc21` [1,3-Dihydro-3,3-dimethyl-1-(propyl-4-pyridinylamino)-2H-indol-2-one], the responders at 0.3 mg/kg in test [1] (mice, retest after 24 hours) was 20%. For the same compound, the ED50 in test [3] was 30.7 mg/kg.
For `CCCN(c1ccncc1)N1C(=O)C2(Cc3ccccc3C2)c2ccccc21` [1,3-dihydro-1'-(propyl-4-pyridinylamino)spiro[2H-indene-2,3'-[3H]indol]-2'(1'H)-one], in test [1] (mice, retest after 24 hours), the responders at 3 mg/kg is 25%.
Regarding `CCCN(c1ccncc1F)N1C(=O)C(C)(C)c2ccccc21` [1,3-dihydro-3,3-dimethyl-1-[4-(3-fluoropyridinyl)propylamino]2H-indol-2-one], the responders at 0.3 mg/kg in test [1] (mice, retest after 24 hours) is 21%. Moreover, the responders at 1 mg/kg in test [1] (setting [4]) is 27%.
In the case of `NN1C(=O)C(Cc2ccncc2)(Cc2ccncc2)c2ccccc21` [1-Amino-3,3-bis(4-pyridinylmethyl)-1,3-dihydro-2H-indol-2-one], the responders at 0.3 mg/kg in test [1] (mice, retest after 24 hours) is 21%.
Turning to `CCC1(c2ccccc2)C(=O)NC(=O)NC1=O` [Phenobarbital, reference compound], in test [3], the ED50 was 8.4 mg/kg.
For the compound `CC[C@@H]1C(=O)OC[C@@H]1Cc1cncn1C` [Pilocarpine, reference compound], the responders at 1.25 mg/kg in test [1] (mice, retest after 24 hours) came out at 19%.
Take `O=C(O)c1ccccc1O` [Salicylic Acid, reference compound]: the ED50 in test [2] came to 3.28 mg/kg.
As to `Nc1c2c(nc3ccccc13)CCCC2` [Tacrine, reference compound], the responders at 0.63 mg/kg in test [1] (mice, retest after 24 hours) was determined as 13%.
